{
  "source": "patent US20070098788A1",
  "about": "“NON-BENZ[…] COMPOSITIONS” (priority 2005, published 2007)",
  "key": {"[1]": {"assay": "Particle size distribution by laser light scattering (Malvern)", "type": "physicochemical", "settings": "zaleplon used in Example 15 capsules; method not stated"}, "[2]": {"settings": "cited from earlier work"}},
  "data": [
    {"smiles": "CCN(C(C)=O)c1cccc(-c2ccnc3c(C#N)cnn23)c1", "note": "[Zaleplon, N-[3-(3-cyanopyrazolo[1,5-α]pyrimidin-7-yl)phenyl]-N-ethylacetamide]", "values": [
      {"measurement": "D90", "setting": "[1]", "value": 195, "unit": "μm"}
    ]},
    {"smiles": "Cc1ccc(-c2nc3ccc(C)cn3c2CC(=O)N(C)C)cc1", "note": "[Zolpidem, N,N, 6-trimethyl-2-p-tolyl-imidazo[1,2-a]pyridine-3-acetamide]", "values": [
      {"measurement": "elimination half-life", "setting": "[2]; in vivo", "value": "2 to 3", "unit": "h"},
      {"measurement": "onset of action", "setting": "[2]; usually", "value": "≤ 15", "unit": "min"}
    ]}
  ]
}
